Measurements: the NIST ThermoML archive (doi:10.1016/j.jct.2006.05.008)
Values joined by “and” are separate entries in the source; they are usually repeats but may differ in a detail not shown here. Equal entries are not always repeated.

Test: molar heat capacity at constant pressure
Details: 101.33 kPa

CCC[n+]1ccn(C)c1.[Br-] [1-methyl-3-propylimidazolium bromide]
Details	molar heat capacity at constant pressure
146.32 K, Glass, Small (less than 1 g) adiabatic calorimetry	140.69 J/K/mol
146.55 K, Crystal, Vacuum adiabatic calorimetry	133.11 J/K/mol
146.9 K, Crystal, Vacuum adiabatic calorimetry	133.3 J/K/mol
147.92 K, Crystal, Vacuum adiabatic calorimetry	133.83 J/K/mol
148.32 K, Metastable crystal, Small (less than 1 g) adiabatic calorimetry	137.4 J/K/mol
148.96 K, Crystal, Vacuum adiabatic calorimetry	134.32 J/K/mol
149.12 K, Glass, Small (less than 1 g) adiabatic calorimetry	142.33 J/K/mol
149.3 K, Crystal, Vacuum adiabatic calorimetry	134.52 J/K/mol
150.68 K, Crystal, Vacuum adiabatic calorimetry	135.21 J/K/mol
150.83 K, Metastable crystal, Small (less than 1 g) adiabatic calorimetry	138.65 J/K/mol
151.02 K, Crystal, Vacuum adiabatic calorimetry	135.37 J/K/mol
151.92 K, Glass, Small (less than 1 g) adiabatic calorimetry	143.94 J/K/mol
152.06 K, Crystal, Vacuum adiabatic calorimetry	135.89 J/K/mol
153.09 K, Crystal, Vacuum adiabatic calorimetry	136.42 J/K/mol
153.33 K, Metastable crystal, Small (less than 1 g) adiabatic calorimetry	139.92 J/K/mol
153.43 K, Crystal, Vacuum adiabatic calorimetry	136.63 J/K/mol
153.5 K, Glass, Small (less than 1 g) adiabatic calorimetry	144.83 J/K/mol
154.73 K, Glass, Small (less than 1 g) adiabatic calorimetry	145.57 J/K/mol
154.81 K, Crystal, Vacuum adiabatic calorimetry	137.37 J/K/mol
155.15 K, Crystal, Vacuum adiabatic calorimetry	137.48 J/K/mol
155.84 K, Metastable crystal, Small (less than 1 g) adiabatic calorimetry	141.25 J/K/mol
155.92 K, Glass, Small (less than 1 g) adiabatic calorimetry	146.2 J/K/mol
156.19 K, Crystal, Vacuum adiabatic calorimetry	138.07 J/K/mol
157.22 K, Crystal, Vacuum adiabatic calorimetry	138.55 J/K/mol
157.53 K, Glass, Small (less than 1 g) adiabatic calorimetry	147.21 J/K/mol
157.57 K, Crystal, Vacuum adiabatic calorimetry	138.81 J/K/mol
158.35 K, Metastable crystal, Small (less than 1 g) adiabatic calorimetry	142.5 J/K/mol
158.39 K, Glass, Small (less than 1 g) adiabatic calorimetry	147.68 J/K/mol
158.74 K, Metastable crystal, Small (less than 1 g) adiabatic calorimetry	142.49 J/K/mol
158.95 K, Crystal, Vacuum adiabatic calorimetry	139.5 J/K/mol
159.29 K, Crystal, Vacuum adiabatic calorimetry	139.64 J/K/mol
160.32 K, Crystal, Vacuum adiabatic calorimetry	140.24 J/K/mol
160.34 K, Glass, Small (less than 1 g) adiabatic calorimetry	148.83 J/K/mol
160.85 K, Glass, Small (less than 1 g) adiabatic calorimetry	149.02 J/K/mol
160.86 K, Metastable crystal, Small (less than 1 g) adiabatic calorimetry	143.76 J/K/mol
161.31 K, Metastable crystal, Small (less than 1 g) adiabatic calorimetry	143.83 J/K/mol
161.35 K, Crystal, Vacuum adiabatic calorimetry	140.75 J/K/mol
161.7 K, Crystal, Vacuum adiabatic calorimetry	141.04 J/K/mol
163.07 K, Crystal, Vacuum adiabatic calorimetry	141.95 J/K/mol
163.14 K, Glass, Small (less than 1 g) adiabatic calorimetry	150.42 J/K/mol
163.31 K, Glass, Small (less than 1 g) adiabatic calorimetry	150.41 J/K/mol
163.36 K, Metastable crystal, Small (less than 1 g) adiabatic calorimetry	145.06 J/K/mol
163.42 K, Crystal, Vacuum adiabatic calorimetry	142.16 J/K/mol
163.82 K, Metastable crystal, Small (less than 1 g) adiabatic calorimetry	145.08 J/K/mol
164.45 K, Crystal, Vacuum adiabatic calorimetry	143.11 J/K/mol
165.48 K, Crystal, Vacuum adiabatic calorimetry	144.27 J/K/mol
165.77 K, Glass, Small (less than 1 g) adiabatic calorimetry	151.85 J/K/mol
165.82 K, Crystal, Vacuum adiabatic calorimetry	145.11 J/K/mol
165.87 K, Metastable crystal, Small (less than 1 g) adiabatic calorimetry	146.32 J/K/mol
165.96 K, Glass, Small (less than 1 g) adiabatic calorimetry	152.04 J/K/mol
166.33 K, Metastable crystal, Small (less than 1 g) adiabatic calorimetry	146.42 J/K/mol
167.19 K, Crystal, Vacuum adiabatic calorimetry	146.62 J/K/mol
167.53 K, Crystal, Vacuum adiabatic calorimetry	147.09 J/K/mol
168.23 K, Glass, Small (less than 1 g) adiabatic calorimetry	153.27 J/K/mol
168.38 K, Metastable crystal, Small (less than 1 g) adiabatic calorimetry	147.66 J/K/mol
168.56 K, Crystal, Vacuum adiabatic calorimetry	147.58 J/K/mol
168.77 K, Glass, Small (less than 1 g) adiabatic calorimetry	153.64 J/K/mol
168.85 K, Metastable crystal, Small (less than 1 g) adiabatic calorimetry	147.67 J/K/mol
169.59 K, Crystal, Vacuum adiabatic calorimetry	148.31 J/K/mol
169.93 K, Crystal, Vacuum adiabatic calorimetry	148.36 J/K/mol
170.69 K, Glass, Small (less than 1 g) adiabatic calorimetry	154.76 J/K/mol
170.88 K, Metastable crystal, Small (less than 1 g) adiabatic calorimetry	149.09 J/K/mol
171.3 K, Crystal, Vacuum adiabatic calorimetry	149.09 J/K/mol
171.36 K, Metastable crystal, Small (less than 1 g) adiabatic calorimetry	149.04 J/K/mol
171.57 K, Glass, Small (less than 1 g) adiabatic calorimetry	155.3 J/K/mol
171.66 K, Crystal, Vacuum adiabatic calorimetry	149.38 J/K/mol
172.67 K, Crystal, Vacuum adiabatic calorimetry	149.83 J/K/mol
173.15 K, Glass, Small (less than 1 g) adiabatic calorimetry	156.22 J/K/mol
173.73 K, Crystal, Vacuum adiabatic calorimetry	150.42 J/K/mol
173.86 K, Metastable crystal, Small (less than 1 g) adiabatic calorimetry	151.16 J/K/mol
174.05 K, Crystal, Vacuum adiabatic calorimetry	150.49 J/K/mol
174.37 K, Glass, Small (less than 1 g) adiabatic calorimetry	156.97 J/K/mol
175.42 K, Crystal, Vacuum adiabatic calorimetry	151.1 J/K/mol
175.61 K, Glass, Small (less than 1 g) adiabatic calorimetry	157.68 J/K/mol
175.8 K, Crystal, Vacuum adiabatic calorimetry	151.34 J/K/mol
176.31 K, Metastable crystal, Small (less than 1 g) adiabatic calorimetry	156.29 J/K/mol
176.79 K, Crystal, Vacuum adiabatic calorimetry	151.84 J/K/mol
177.16 K, Glass, Small (less than 1 g) adiabatic calorimetry	158.66 J/K/mol
177.87 K, Crystal, Vacuum adiabatic calorimetry	152.35 J/K/mol
178.06 K, Glass, Small (less than 1 g) adiabatic calorimetry	159.2 J/K/mol
178.16 K, Crystal, Vacuum adiabatic calorimetry	152.6 J/K/mol
178.77 K, Metastable crystal, Small (less than 1 g) adiabatic calorimetry	157.34 J/K/mol
179.54 K, Crystal, Vacuum adiabatic calorimetry	153.2 J/K/mol
179.94 K, Crystal, Vacuum adiabatic calorimetry	153.35 J/K/mol
179.96 K, Glass, Small (less than 1 g) adiabatic calorimetry	160.43 J/K/mol
180.51 K, Glass, Small (less than 1 g) adiabatic calorimetry	160.72 J/K/mol
180.91 K, Crystal, Vacuum adiabatic calorimetry	153.97 J/K/mol
181.24 K, Metastable crystal, Small (less than 1 g) adiabatic calorimetry	158.54 J/K/mol
182.01 K, Crystal, Vacuum adiabatic calorimetry	154.36 J/K/mol
182.28 K, Crystal, Vacuum adiabatic calorimetry	154.57 J/K/mol
182.76 K, Glass, Small (less than 1 g) adiabatic calorimetry	162.21 J/K/mol
182.96 K, Glass, Small (less than 1 g) adiabatic calorimetry	162.2 J/K/mol
183.71 K, Metastable crystal, Small (less than 1 g) adiabatic calorimetry	159.86 J/K/mol
184.08 K, Crystal, Vacuum adiabatic calorimetry	155.44 J/K/mol
184.32 K, Crystal, Vacuum adiabatic calorimetry	155.34 J/K/mol
185.31 K, Crystal, Vacuum adiabatic calorimetry	156.02 J/K/mol
185.4 K, Glass, Small (less than 1 g) adiabatic calorimetry	163.81 J/K/mol
185.55 K, Glass, Small (less than 1 g) adiabatic calorimetry	163.97 J/K/mol
186.15 K, Crystal, Vacuum adiabatic calorimetry	156.46 J/K/mol
186.18 K, Metastable crystal, Small (less than 1 g) adiabatic calorimetry	161.18 J/K/mol
186.86 K, Crystal, Vacuum adiabatic calorimetry	156.54 J/K/mol
187 K, Crystal, Vacuum adiabatic calorimetry	156.84 J/K/mol
187.85 K, Glass, Small (less than 1 g) adiabatic calorimetry	165.5 J/K/mol
188.22 K, Crystal, Vacuum adiabatic calorimetry	157.39 J/K/mol
188.33 K, Glass, Small (less than 1 g) adiabatic calorimetry	165.89 J/K/mol
188.37 K, Crystal, Vacuum adiabatic calorimetry	157.44 J/K/mol
188.65 K, Metastable crystal, Small (less than 1 g) adiabatic calorimetry	162.48 J/K/mol
189.74 K, Crystal, Vacuum adiabatic calorimetry	158.15 J/K/mol and 158.27 J/K/mol
190.29 K, Crystal, Vacuum adiabatic calorimetry	158.43 J/K/mol
190.29 K, Glass, Small (less than 1 g) adiabatic calorimetry	167.25 J/K/mol
190.58 K, Crystal, Vacuum adiabatic calorimetry	158.53 J/K/mol
191.11 K, Crystal, Vacuum adiabatic calorimetry	158.93 J/K/mol
191.12 K, Glass, Small (less than 1 g) adiabatic calorimetry	167.98 J/K/mol
191.12 K, Metastable crystal, Small (less than 1 g) adiabatic calorimetry	163.72 J/K/mol
192.28 K, Crystal, Vacuum adiabatic calorimetry	159.62 J/K/mol
192.36 K, Crystal, Vacuum adiabatic calorimetry	159.59 J/K/mol
192.48 K, Crystal, Vacuum adiabatic calorimetry	159.63 J/K/mol
192.74 K, Glass, Small (less than 1 g) adiabatic calorimetry	168.95 J/K/mol
193.11 K, Crystal, Vacuum adiabatic calorimetry	160.08 J/K/mol
193.58 K, Metastable crystal, Small (less than 1 g) adiabatic calorimetry	165.05 J/K/mol
193.85 K, Crystal, Vacuum adiabatic calorimetry	160.55 J/K/mol
193.9 K, Glass, Small (less than 1 g) adiabatic calorimetry	169.91 J/K/mol
194.35 K, Crystal, Vacuum adiabatic calorimetry	160.92 J/K/mol
195.18 K, Crystal, Vacuum adiabatic calorimetry	161.48 J/K/mol
195.19 K, Glass, Small (less than 1 g) adiabatic calorimetry	171.15 J/K/mol
195.22 K, Crystal, Vacuum adiabatic calorimetry	161.53 J/K/mol
196.05 K, Metastable crystal, Small (less than 1 g) adiabatic calorimetry	166.26 J/K/mol
196.59 K, Crystal, Vacuum adiabatic calorimetry	162.52 J/K/mol
196.68 K, Glass, Small (less than 1 g) adiabatic calorimetry	172.49 J/K/mol
197.24 K, Crystal, Vacuum adiabatic calorimetry	163.14 J/K/mol
197.62 K, Glass, Small (less than 1 g) adiabatic calorimetry	173.39 J/K/mol
197.95 K, Crystal, Vacuum adiabatic calorimetry	163.6 J/K/mol
198.51 K, Crystal, Vacuum adiabatic calorimetry	164.2 J/K/mol
198.51 K, Metastable crystal, Small (less than 1 g) adiabatic calorimetry	167.53 J/K/mol
199.3 K, Crystal, Vacuum adiabatic calorimetry	164.84 J/K/mol
